The text below walks through data of US10350210B2, “EGFR and ALK dual inhibitor” (PRECEDO PHARMACEUTICALS CO., LTD, priority 2015, dated 2019).

In experiment [1] the test system is BaF3-TEL-EGFR-T790M. Nature of the experiment: Cell growth (Cell Titer-Glo viability), BaF3-TEL-EGFR-T790M. It counts as cell-based. The note with it: Mus musculus; BaF3-TEL-EGFR-T790M (EGFR T790M mutant kinase), 72 hrs. An outline of the steps:
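Antiproliferative assay in engineered BaF3 lines made IL-3-independent by retroviral TEL-fused kinase constructs, and in cancer cell lines HCC827 (EGFR del19) and NCI-H3255 (EGFR L858R). Viable cells quantified by Cell Titer-Glo luminescence.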

Experiment [2] relates to BaF3-TEL-EGFR-L858R. Put plainly: Cell growth (Cell Titer-Glo viability), BaF3-TEL-EGFR-L858R. Type of experiment: cell-based. The note with it: Mus musculus; BaF3-TEL-EGFR-L858R (EGFR L858R mutant kinase), 72 hrs. The method, then:
By testing the effect of the novel kinase inhibitors on the proliferation of cancer cells, the selectivity of the compounds of the present disclosure in inhibiting the proliferation of cancer cells was further assessed. […]
The number of viable cells was determined quantitatively by a microplate reader using Cell Titer-Glo® (Promega, US) chemiluminescence cell viability assay kit.
On the technique in general: In ATP-based viability assays light output follows the ATP content of the culture.

Experiment [3] concerns EGFR protein (wild-type EGFR, A549). Put plainly: Effect on signaling pathway in cells, A549. It counts as cell-based, human. The note with it: 0.03-3 μM, 4 h. An excerpt: In four cell lines (all purchased from ATCC) including non-small cell lung cancer cell line A549 (expressing wild-type EGFR gene), non-small cell lung cancer cell line H1975 (expressing EGFR L858R/T790M double mutant gene), non-small cell lung cancer cell line H3255 (expressing EGFR L858R mutant gene) and non-small cell lung cancer cell line PC-9 (expressing EGFR delE746_A750 mutant gene), the effect of Compound 1 on EGFR or other protein kinases related to signaling pathways of EGFR such as Stat3, AKT, ErK, eIF4E, 4EBP1, P70S6K was assessed by assaying a number of cellular biochemical and functional endpoints. […] The effect of Compound 1 on phosphorylation of Stat3Y705, AKT T308, AKT 5473, Erk T202/204, EGFR Y1068, P70S6K Thr389, eIF4E Ser209, Erk T202/204, 4EBP1 (Thr37/46) in these cell lines was assayed (FIGS. 1a to 1d).

Experiment [4] concerns PC-9. Put plainly: Effect on cell apoptosis (Western Blot, PARP and Caspase 3 cleavage), PC-9. It counts as cell-based, human. To be noted: PC-9 (EGFR delE746_A750), 24 hours. From the text:
In order to confirm whether the death of cells is through apoptosis or necrosis after administration of drugs, non-small cell lung cancer cell A549 (expressing wild-type EGFR gene), non-small cell lung cancer cell line H1975 (expressing EGFR L858R/T790M double mutant gene), non-small cell lung cancer cell line H3255 (expressing EGFR L858R mutant gene), non-small cell lung cancer cell line H3122 (expressing ALK gene) cell line, and non-small cell lung cancer cell line PC-9 (expressing EGFR delE746_A750 mutant gene) were tested for effect of Compound 1 on cleavage of poly ADP-ribose polymerase PARP which is a DNA repair enzyme and Caspase 3, which were closely related to cell apoptosis. […] Western Blot was used to detect the effect of various concentrations of drugs at various time points on cleavage of poly ADP-ribose polymerase PARP which is a DNA repair enzyme and Caspase 3.
In general terms: Immunoblotting shows a protein as a band on a membrane.

Experiment [5] deals with NCI-H2228. Nature of the experiment: Growth of cancer cells (Cell Titer-Glo viability), NCI-H2228. It counts as cell-based. The note with it: Homo sapiens; NCI-H2228 (wild-type ALK), 72 hrs.

Molecules are shown by their SMILES.

In the case of `C=CC(=O)Nc1cc(Nc2ncc(Cl)c(Nc3ccccc3S(=O)(=O)C(C)C)n2)c(OC)cc1N1CCN(CC)CC1` [Compound 1, N-(5-(5-chloro-4-(2-(isopropylsulfonyl)phenylamino)pyrimidin-2-ylamino)-2-(4-ethylpiperazin-1-yl)-4-methoxyphenyl)acrylamide], the concentration for 50% growth inhibition (GI50) in experiment [1] is 0.032 µM; in experiment [2], less than 0.003 µM. In addition, the “effect on phosphorylation of EGFR protein and of STAT3, S6K, AKT, ERK, eIF4E” value in experiment [3] is reported as “little effect”. In addition, in experiment [4], the “concentration at which evident cleavage of PARP and Caspase 3 could be observed” value was 0.3 µM.
The molecule `C=CC(=O)Nc1cc(Nc2ncc(Cl)c(Nc3ccccc3S(=O)(=O)C(C)C)n2)c(OC)cc1N1CCCN(C)CC1` [Compound 10, N-(5-(5-chloro-4-(2-(isopropylsulfonyl)phenylamino)pyrimidin-2-ylamino)-4-methoxy-2-(4-methyl-1,4-homopiperazin-1-yl)phenyl)acrylamide] had a 50% growth inhibitory concentration (GI50) in experiment [5] of less than 0.003 µM.

Broadly, the GI50 is the concentration that inhibits growth by half.
